Consider one substance from patent US20260199213A1, “PEPTIDE HAVING ACTIVITY OF IMPROVING STATE OF SKIN, AND USE THEREOF” (CAREGEN CO., LTD., priority 2022, published 2026).

What all share (assay type): cell-based
One experiment relates to SIRT-1. Kind of experiment: SIRT-1 expression reduced by ultraviolet rays in HaCaT cells (RT-PCR). The settings on record: 15 mJ/cm^2 UV, 10 μM, 50 μM or 1000 μM peptide, 8 hours. As to the method:
(§1) In this example, the aim was to confirm the effect of the peptide according to an embodiment on the recovery of skin barrier factors in damaged skin cells by evaluating changes in the levels of skin barrier factors in skin cells reduced by ultraviolet irradiation.
(§2) Specifically, HaCaT cells were seeded in a 6-well plate at a density of 5×10^5 cells/well and cultured for 24 hours. Next, the cells were washed once with serum-free DMEM media, and 10 μM, 50 μM or 1000 μM of the peptide consisting of the amino acid sequence of SEQ ID NO: 1 was dispensed into 1 mL of the serum-free media, and cultured in a CO2 incubator at 37° C. for 1 hour. Next, the above culture was transferred to an e-tube, mixed with 1 ml of PBS, and dispensed into a well plate. Next, using a UV irradiator (VILBER LOURMAT, Cat No.: 3102-BSU, France), 15 mJ/cm^2 ultraviolet rays were irradiated to the HaCaT cells. Next, the PBS in the well plate was removed, 900 μL of the culture medium in which the peptides were dispensed was added, and the plate was cultured in a CO2 incubator at 37° C. for 8 hours. Next, the culture was washed twice with PBS, and RNA was isolated from the culture using easy blue (iNtRON, Cat. No.: 17061, Korea). Next, using an RT kit (Enzynomics, Cat. NO.: RT200, Korea), the isolated RNA was reverse transcribed to synthesize the respective cDNA. […]

Experiment [1] has as its system MMP-1. Kind of experiment: MMP-1 expression increased by ultraviolet rays in NIH3T3 cells (western blot). The settings on record: 6 J/cm^2 UV, 10 μM, 50 μM or 1000 μM peptide, 24 hours, FIG. 14. An excerpt:
(§3) It has been reported that MMP-1 (matrix metalloproteinase-1) promotes the decomposition of collagen and the reduction of elastin in the dermis layer, thereby creating wrinkles and causing a decrease in elasticity in the skin. Accordingly, in this example, the aim was to confirm the effect of the peptide according to an embodiment on improving extrinsic skin aging, including improving wrinkles and increasing elasticity, etc., by evaluating the change in the expression level of MMP-1 increased by ultraviolet irradiation.
(§4) Specifically, NIH3T3 cells or HaCaT cells were seeded in a 6-well plate at a density of 5×10^5 cells/well and cultured for 24 hours. Next, the cells were washed once with serum-free DMEM media, and 10 μM, 50 μM or 1000 μM of the peptide consisting of the amino acid sequence of SEQ ID NO: 1 was dispensed into 1 mL of the serum-free media, and cultured in a CO2 incubator at 37° C. for 1 hour. Next, the above culture was transferred to an e-tube, mixed with 1 ml of PBS, and dispensed into a well plate. Next, using a UV irradiator (VILBER LOURMAT, Cat No.: 3102-BSU, France), 6 J/cm^2 ultraviolet rays were irradiated to NIH3T3 cells, and 20 mJ/cm^2 ultraviolet rays were irradiated to HaCaT cells. […] Next, MMP-1 was detected using […]. […]
A general note: Immunoblotting shows a protein as a band on a membrane.

A further experiment relates to hyaluronic acid. The experiment in a line: Hyaluronic acid level by HA ELISA in HaCaT cells. To be noted: 10 μM, 50 μM or 1000 μM peptide, 72 hours. As to the method:
Additionally, to evaluate the expression levels of procollagen I alpha and hyaluronic acid at the protein level, NIH3T3 cells or HaCaT cells were seeded at a density of 1×10^4 cells/well in 24-well plates and then cultured for 24 hours. Next, the cells were washed once with serum-free DMEM media, and 10 μM, 50 μM or 1000 μM of the peptide consisting of the amino acid sequence of SEQ ID NO: 1 was dispensed into 2 mL of the serum-free media, and cultured in a CO2 incubator at 37° C. for 72 hours. Next, the culture was centrifuged to settle the suspended matter, and the supernatant was transferred to an e-tube. Next, Collagen ELISA (abcam, Cat No.: ab210579, UK) and HA ELISA (ECHELON biosciences, Cat No.: K-1200, USA) were performed on the centrifuged culture. Meanwhile, in this example, an untreated group was used as the control group, and a group to which TGF-β1 or EGF was added was used as the positive control group.
For orientation: In an ELISA, binding on a coated surface is turned into a signal by an enzyme label.

Experiment [2] has as its system MMP-1. Kind of experiment: MMP-1 expression increased by ultraviolet rays in HaCaT cells (western blot). The settings on record: 20 mJ/cm^2 UV, 10 μM, 50 μM or 1000 μM peptide, 24 hours, FIG. 15.
Text: as §3, §4

The next experiment concerns AQP3. The experiment in a line: AQP3 expression reduced by ultraviolet rays in HaCaT cells (RT-PCR). The settings on record: 15 mJ/cm^2 UV, 10 μM, 50 μM or 1000 μM peptide, 8 hours. As to the method: as §1, §2

As for GPRGDP [SEQ ID NO: 1], the “expression of SIRT-1 reduced by ultraviolet irradiation” value in the experiment with SIRT-1 is listed as “increased or restored”. For the same substance, the “expression of MMP-1 increased by ultraviolet irradiation” value with MMP-1 [1] and in the experiment on MMP-1 [2] was “reduced or restored” throughout. Also, the “expression of hyaluronic acid at the protein level” value in the experiment on hyaluronic acid is “increased”. In addition, the “expression of AQP3 reduced by ultraviolet irradiation” value in the experiment on AQP3 is “increased or restored”.
